Reference: PubChem BioAssay AID330 (DTP/NCI, 2004)
Inconclusive results and toxic doses are left out.

Test system: P388 leukemia ip, CD2F1 mice, survival T/C
Assay: NCI In Vivo Anticancer Drug Screen. Data for tumor model P388 Leukemia (intraperitoneal) in CD2F1 (CDF1) mice
Details: endpoint: median survival time, higher = longer survival
Procedure, shortened: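 Mice carrying the transplanted tumor received test compound or vehicle. Survival was recorded in each group, and the value is the treated-group measurement divided by that of the vehicle-treated control group.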

## CCCC(=O)Oc1c(OC(=O)CCC)c(OC(=O)CCC)c(OC(=O)CCC)c(OC(=O)CCC)c1OC(=O)CCC
dose: 100.0 mg/kg/injection, schedule: Q04DX002 (ip), vehicle: saline with Tween-80
  T/C: 95 % of control
dose: 200.0 mg/kg/injection, schedule: Q04DX002 (ip), vehicle: saline with Tween-80
  T/C: 99 % of control
dose: 400.0 mg/kg/injection, schedule: Q04DX002 (ip), vehicle: saline with Tween-80
  T/C: 90 % of control

## CC(=O)C(N=Nc1ccc(S(=O)(=O)Nc2ncccn2)cc1)C(C)=O
dose: 100.0 mg/kg/injection, schedule: Q04DX003 (ip), vehicle: saline with Tween-80
  T/C: 92 % of control
dose: 200.0 mg/kg/injection, schedule: Q04DX003 (ip), vehicle: saline with Tween-80
  T/C: 88 % of control
dose: 400.0 mg/kg/injection, schedule: Q04DX003 (ip), vehicle: saline with Tween-80
  T/C: 90 % of control

## COc1ccc(C)cc1NC(=S)C#N
dose: 60.0 mg/kg/injection, schedule: Q01DX005 (ip), vehicle: saline with Tween-80
  T/C: 98 % of control
dose: 120.0 mg/kg/injection, schedule: Q01DX005 (ip), vehicle: saline with Tween-80
  T/C: 106 % of control

## CCOC(=O)NSCC
dose: 6.25 mg/kg/injection, schedule: Q01DX009 (ip), vehicle: saline
  T/C: 100 % of control
dose: 12.5 mg/kg/injection, schedule: Q01DX009 (ip), vehicle: saline
  T/C: 103 % of control
dose: 25.0 mg/kg/injection, schedule: Q01DX009 (ip), vehicle: saline
  T/C: 105 % of control

## CS(=O)(=O)CS(=O)(=O)OCCBr
dose: 12.5 mg/kg/injection, schedule: Q01DX005 (ip), vehicle: saline with Tween-80
  T/C: 98 % of control
dose: 25.0 mg/kg/injection, schedule: Q01DX005 (ip), vehicle: saline with Tween-80
  T/C: 123 % of control
dose: 50.0 mg/kg/injection, schedule: Q01DX005 (ip), vehicle: saline with Tween-80
  T/C: 159 % of control
dose: 100.0 mg/kg/injection, schedule: Q01DX005 (ip), vehicle: saline with Tween-80
  T/C: 226 % of control
